Where two headings read alike, the source gives them in different places.
What was measured:
[1] = target: GDP-bound NRAS wild-type protein (Homo sapiens, UniProt P01111); test: Binding to NRAS by surface plasmon resonance (SPR), Single Cycle Kinetics; conditions: for NRAS/KRAS (ratio of KD value for NRAS to KD value for KRAS): SPR, GDP-bound NRAS wild-type protein vs GDP-bound KRAS wild-type protein; for NRAS/KRAS (ratio of KD value with respect to GDP-bound NRAS wild-type protein to KD value with respect to KRAS): SPR KD ratio NRAS/KRAS, class symbols
[2] = target: GDP-bound KRAS wild-type protein (Homo sapiens, UniProt P01116); test: Binding to KRAS by surface plasmon resonance (SPR), Single Cycle Kinetics; conditions: GDP-bound KRAS wild-type protein, read-out: KRAS KD
[3] = tested on: human lung cancer strain NCI-H441;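 note: cell proliferation inhibition after four days measured by CellTiter-Glo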
[4] = target: GDP-bound HRAS wild-type protein (Homo sapiens, UniProt P01112); test: Binding to HRAS by surface plasmon resonance (SPR), Single Cycle Kinetics; conditions: for HRAS/KRAS (ratio of KD value for HRAS to KD value for KRAS): SPR, GDP-bound HRAS wild-type protein vs GDP-bound KRAS wild-type protein; for HRAS/KRAS (ratio of KD value with respect to GDP-bound HRAS wild-type protein to KD value with respect to KRAS): SPR KD ratio HRAS/KRAS, class symbols
[5] = SPR, Single Cycle Kinetics, 1:1 binding model
[6] = SPR Single Cycle Kinetics, 1:1 binding model

Chain of GDP-bound KRAS wild-type protein (P01116 whole entry): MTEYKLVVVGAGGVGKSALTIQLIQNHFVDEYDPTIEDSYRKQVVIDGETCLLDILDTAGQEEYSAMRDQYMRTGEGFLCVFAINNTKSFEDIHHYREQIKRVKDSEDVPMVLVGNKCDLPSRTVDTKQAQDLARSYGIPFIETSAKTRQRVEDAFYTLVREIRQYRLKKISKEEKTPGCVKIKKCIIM
Chain of GDP-bound NRAS wild-type protein (P01111 whole entry): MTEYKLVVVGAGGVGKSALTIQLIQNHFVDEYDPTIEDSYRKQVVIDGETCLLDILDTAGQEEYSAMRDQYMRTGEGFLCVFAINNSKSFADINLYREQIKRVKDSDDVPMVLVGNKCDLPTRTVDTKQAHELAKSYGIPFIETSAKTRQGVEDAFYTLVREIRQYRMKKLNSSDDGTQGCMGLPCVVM
Chain of GDP-bound HRAS wild-type protein (P01112 whole entry): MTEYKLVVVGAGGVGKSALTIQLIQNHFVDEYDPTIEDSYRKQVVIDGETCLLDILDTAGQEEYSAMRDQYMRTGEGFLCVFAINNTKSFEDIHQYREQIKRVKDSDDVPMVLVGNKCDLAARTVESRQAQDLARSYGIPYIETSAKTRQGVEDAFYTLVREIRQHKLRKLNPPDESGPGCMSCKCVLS

With `CCO[C@@H]1C[C@H]2C(=O)NC3(CCCC3)C(=O)N(C)[C@@H](C3CCCC3)C(=O)N(C)[C@H](C(=O)N(C)C)CC(=O)N(C)[C@@H](CC3CC3)C(=O)N[C@@H]([C@@H](C)CC)C(=O)N(C)CC(=O)N(C)[C@H]3C[C@@H](C)[C@@H](C)CN(C3=O)[C@@H](Cc3ccc(C(F)(F)F)cc3)C(=O)N(C)CC(=O)N[C@@H](CCc3ccc(C(F)(F)F)c(Cl)c3)C(=O)N2C1` [PP1362] the “NRAS/KRAS (ratio of KD value for NRAS to KD value for KRAS)” value ([1]; KD ratio class) was “A (a compound having 10 or more and less than 20 is denoted as A)”, the Kd [2, 5] was 0.037 nM and the IC50 [3] was 3.7 nM. The “HRAS/KRAS (ratio of KD value for HRAS to KD value for KRAS)” value ([4]; KD ratio class) was “B (a compound having 3 or more and less than 10 is denoted as B)”.
`CCO[C@@H]1C[C@H]2C(=O)NC3(CC(C)(C)C3)C(=O)N(C)[C@@H](C(CC)CC)C(=O)N(C)[C@H](C(=O)N(C)C)CC(=O)N(C)[C@@H](C(C)C)C(=O)N[C@@H]([C@@H](C)CC)C(=O)N(C)CC(=O)N(C)[C@H]3C/C=C\CCN(C3=O)[C@@H](CC3CCC(F)(F)CC3)C(=O)N(C)CC(=O)N[C@@H](CCc3ccc(C(F)(F)F)c(OC)c3)C(=O)N2C1` [PP2477] was tested, and the “NRAS/KRAS (ratio of KD value for NRAS to KD value for KRAS)” value [1] was “A (a compound having 10 or more and less than 20 is denoted as A)”, the Kd ([2]; SPR, Single Cycle Kinetics) was 1.8 nM and the IC50 [3] was 127 nM. The “HRAS/KRAS (ratio of KD value for HRAS to KD value for KRAS)” value [4] was “A (a compound having 10 or more and less than 20 is denoted as A)”.
With `CCO[C@@H]1C[C@H]2C(=O)NC3(CCCC3)C(=O)N(C)[C@@H](C(CC)CC)C(=O)N(C)[C@H](C(=O)N3CCCC3)CC(=O)N(C)[C@@H](C)C(=O)N[C@@H]([C@@H](C)CC)C(=O)N(C)CC(=O)N(C)[C@H]3C/C=C\CCN(C3=O)[C@@H](CC3CCC(F)(F)CC3)C(=O)N(C)CC(=O)N[C@@H](CCc3cc(F)c(C(F)(F)F)c(F)c3)C(=O)N2C1` [PP1437] the “NRAS/KRAS (ratio of KD value for NRAS to KD value for KRAS)” value ([1]; KD ratio class) was “A (a compound having 10 or more and less than 20 is denoted as A)”, the Kd [2, 5] was 0.61 nM and the IC50 [3] was 220 nM. The “HRAS/KRAS (ratio of KD value for HRAS to KD value for KRAS)” value ([4]; KD ratio class) was “A (a compound having 10 or more and less than 20 is denoted as A)”.
With `CCO[C@@H]1C[C@H]2C(=O)NC3(CCC3)C(=O)N(C)[C@@H](C(CC)CC)C(=O)N(C)[C@H](C(=O)N(C)C)CC(=O)N(C)[C@@H](CC)C(=O)N[C@@H]([C@@H](C)CC)C(=O)N(C)CC(=O)N(C)[C@H]3C/C=C\CCN(C3=O)[C@@H](Cc3ccc(C(F)(F)F)cc3)C(=O)N(C)CC(=O)N[C@@H](CCc3cc(F)c(C(F)(F)F)c(F)c3)C(=O)N2C1` [PP1200] the “NRAS/KRAS (ratio of KD value for NRAS to KD value for KRAS)” value [1] was “AA (a compound having 20 or more is denoted as AA)”, the Kd ([2]; SPR, Single Cycle Kinetics) was 0.2 nM and the IC50 [3] was 19.2 nM. For the same compound, the “HRAS/KRAS (ratio of KD value for HRAS to KD value for KRAS)” value [4] was “A (a compound having 10 or more and less than 20 is denoted as A)”.
`CCOC[C@H]1C(=O)N[C@@H]([C@@H](C)CC)C(=O)N(C)CC(=O)N(C)[C@H]2C/C=C\CCN(C2=O)[C@@H](CC2CCCCC2)C(=O)N(C)CC(=O)N[C@@H](CCc2ccc(C(F)(F)F)c(OC)c2)C(=O)N2C[C@@H](C)C[C@H]2C(=O)N(C)C2(CCC2)C(=O)N(C)[C@@H](C2CCCC2)C(=O)N(C)[C@H](C(=O)N(C)C)CC(=O)N1C` [PP2371] was tested, and the “NRAS/KRAS (ratio of KD value for NRAS to KD value for KRAS)” value [1] was “A (a compound having 10 or more and less than 20 is denoted as A)”, the Kd ([2]; SPR, Single Cycle Kinetics) was 0.64 nM and the IC50 [3] was 41.9 nM. The “HRAS/KRAS (ratio of KD value for HRAS to KD value for KRAS)” value [4] was “B (a compound having 3 or more and less than 10 is denoted as B)”.
In the case of `CCO[C@@H]1C[C@H]2C(=O)NC3(CCC3)C(=O)N(C)[C@@H](C(CC)CC)C(=O)N(C)[C@H](C(=O)N(C)C)CC(=O)N(C)[C@@H](CC)C(=O)N[C@@H]([C@@H](C)CC)C(=O)N(C)CC(=O)N(C)[C@H]3C/C=C\CCN(C3=O)[C@@H](Cc3ccc(C(F)(F)F)cc3)C(=O)N(C)CC(=O)N[C@@H](CCc3cc(F)c(Cl)c(F)c3)C(=O)N2C1` [PP1230], the “NRAS/KRAS (ratio of KD value for NRAS to KD value for KRAS)” value ([1]; KD ratio class) is reported as “A (a compound having 10 or more and less than 20 is denoted as A)”, the Kd [2, 5] is reported as 0.77 nM and the IC50 [3] is reported as 110 nM. The “HRAS/KRAS (ratio of KD value for HRAS to KD value for KRAS)” value ([4]; KD ratio class) was “A (a compound having 10 or more and less than 20 is denoted as A)”.
`CCC[C@H]1C(=O)N[C@@H]([C@@H](C)CC)C(=O)N(C2CC2)CC(=O)N(C)[C@H]2C/C=C\CCN(C2=O)[C@@H](Cc2ccc(C)cc2)C(=O)N(C)CC(=O)N[C@@H](CCc2cc(F)c(C(F)(F)F)c(F)c2)C(=O)N2C[C@H](OC(C)C)C[C@H]2C(=O)NC2(CC(C)(C)C2)C(=O)N(C)[C@@H](C2CCCC2)C(=O)N(C)[C@H](C(=O)N(C)C)CC(=O)N1C` [PP2570] was tested, and the “NRAS/KRAS (ratio of KD value with respect to GDP-bound NRAS wild-type protein to KD value with respect to KRAS)” value [1] was “A (a compound having 10 or more and less than 20 is denoted as A)”, the Kd [2, 6] was 0.39 nM and the IC50 [3] was 8.9 nM. The “HRAS/KRAS (ratio of KD value with respect to GDP-bound HRAS wild-type protein to KD value with respect to KRAS)” value [4] was “A (a compound having 10 or more and less than 20 is denoted as A)”.
`CCO[C@@H]1C[C@H]2C(=O)NC3(CCC3)C(=O)N(C)[C@@H](C3CCCC3)C(=O)N(C)[C@H](C(=O)N(C)C)CC(=O)N(C)[C@@H](CC)C(=O)N[C@@H]([C@@H](C)CC)C(=O)N(C)CC(=O)N(C)[C@H]3C/C=C\CCN(C3=O)[C@@H](Cc3ccc(C(F)(F)F)cc3)C(=O)N(C)CC(=O)N[C@@H](CCc3ccc(C(F)(F)F)c(OC)c3)C(=O)N2C1` [PP1243, (2S,8S,12R,14S,20S,23S,27S,30S,36S,38Z)-20-cyclopentyl-12-ethoxy-27-ethyl-8-[2-[3-methoxy-4-(trifluoromethyl)phenyl]ethyl]-N,N,4,19,22,26,32,35-octamethyl-30-[(1S)-1-methylpropyl]-3,6,9,15,18,21,25,28,31,34,42-undecaoxo-2-[[4-(trifluoromethyl)phenyl]methyl]spiro[1,4,7,10,16,19,22,26,29,32,35-undecazatricyclo[34.5.1.0^10,14]dotetracont-38-ene-17,1′-cyclobutane]-23-carboxamide] was tested, and the “NRAS/KRAS (ratio of KD value for NRAS to KD value for KRAS)” value ([1]; KD ratio class) was “A (a compound having 10 or more and less than 20 is denoted as A)”, the Kd [2, 5] was 0.058 nM and the IC50 [3] was 13.2 nM. For the same compound, the “HRAS/KRAS (ratio of KD value for HRAS to KD value for KRAS)” value ([4]; KD ratio class) was “A (a compound having 10 or more and less than 20 is denoted as A)”.
For `CCO[C@@H]1C[C@H]2C(=O)NC3(CCC3)C(=O)N(C)[C@@H](C3CCCC3)C(=O)N(C)[C@H](C(=O)N(C)C)CC(=O)N(C)[C@@H](COC)C(=O)N[C@@H]([C@@H](C)CC)C(=O)N(C)CC(=O)N(C)[C@H]3CCCCCN(C3=O)[C@@H](Cc3ccc(F)cc3)C(=O)N(C)CC(=O)N[C@@H](CCc3cc(F)c(C(F)(F)F)c(F)c3)C(=O)N2C1` [PP1193], the “NRAS/KRAS (ratio of KD value for NRAS to KD value for KRAS)” value [1] was “B (a compound having 3 or more and less than 10 is denoted as B)”, the Kd ([2]; SPR, Single Cycle Kinetics) was 0.07 nM and the IC50 [3] was 16.3 nM. The “HRAS/KRAS (ratio of KD value for HRAS to KD value for KRAS)” value [4] was “B (a compound having 3 or more and less than 10 is denoted as B)”.
For `CCC[C@H]1C(=O)N[C@@H]([C@@H](C)CC)C(=O)N2CCC[C@H]2C(=O)N(C)[C@H]2C/C=C\CCN(C2=O)[C@@H](CC2CCCCC2)C(=O)N(C)CC(=O)N[C@@H](CCc2ccc(C(F)(F)F)c(OC)c2)C(=O)N2C[C@@H](C)C[C@H]2C(=O)N(C)C2(CCC2)C(=O)N(C)[C@@H](C2CCCC2)C(=O)N(C)[C@H](C(=O)N(C)C)CC(=O)N1C` [PP2374], the “NRAS/KRAS (ratio of KD value for NRAS to KD value for KRAS)” value [1] was “A (a compound having 10 or more and less than 20 is denoted as A)”, the Kd ([2]; SPR, Single Cycle Kinetics) was 0.85 nM and the IC50 [3] was 67.2 nM. For the same compound, the “HRAS/KRAS (ratio of KD value for HRAS to KD value for KRAS)” value [4] was “A (a compound having 10 or more and less than 20 is denoted as A)”.
In the case of `CCCOC[C@H]1C(=O)N[C@@H]([C@@H](C)CC)C(=O)N(C2CC2)CC(=O)N(C)[C@H]2C/C=C\CCN(C2=O)[C@@H](CC2CCC(F)(F)CC2)C(=O)N(C)CC(=O)N[C@@H](CCc2ccc(C(F)(F)F)c(OC)c2)C(=O)N2C[C@@H](C)C[C@H]2C(=O)N(C)C2(CCC2)C(=O)N(C)[C@@H](C2CCCC2)C(=O)N(C)[C@H](C(=O)N(C)C)CC(=O)N1C` [PP2379], the “NRAS/KRAS (ratio of KD value for NRAS to KD value for KRAS)” value [1] is reported as “A (a compound having 10 or more and less than 20 is denoted as A)”, the Kd ([2]; SPR, Single Cycle Kinetics) is reported as 0.76 nM and the IC50 [3] is reported as 2.2 nM. The “HRAS/KRAS (ratio of KD value for HRAS to KD value for KRAS)” value [4] was “A (a compound having 10 or more and less than 20 is denoted as A)”.
With `CCC[C@H]1C(=O)N[C@@H]([C@@H](C)CC)C(=O)N(C)CC(=O)N(C)[C@H]2C/C=C\CCN(C2=O)[C@@H](Cc2ccc(C(F)(F)F)cc2)C(=O)N(C)CC(=O)N[C@@H](CCc2ccc(C(F)(F)F)c(OC)c2)C(=O)N2C[C@H](OCC)C[C@H]2C(=O)NC2(CC(C)(C)C2)C(=O)N(C)[C@@H](CC2CCC2)C(=O)N(C)[C@H](C(=O)N(C)C)CC(=O)N1C` [PP2764] the “NRAS/KRAS (ratio of KD value with respect to GDP-bound NRAS wild-type protein to KD value with respect to KRAS)” value [1] was “A (a compound having 10 or more and less than 20 is denoted as A)”, the Kd [2, 6] was 0.85 nM and the IC50 [3] was 55.8 nM. For the same compound, the “HRAS/KRAS (ratio of KD value with respect to GDP-bound HRAS wild-type protein to KD value with respect to KRAS)” value [4] was “A (a compound having 10 or more and less than 20 is denoted as A)”.
In the case of `CCOC[C@H]1C(=O)N[C@@H]([C@@H](C)CC)C(=O)N(C)CC(=O)N(C)[C@H]2C/C=C\CCN(C2=O)[C@@H](CC2CCCCC2)C(=O)N(C)CC(=O)N[C@@H](CCc2ccc(C(F)(F)F)c(Cl)c2)C(=O)N2C[C@H](OCC)C[C@H]2C(=O)NC2(CC(C)(C)C2)C(=O)N(C)[C@@H](C(CC)CC)C(=O)N(C)[C@H](C(=O)N(C)C)CC(=O)N1C` [PP2488], the “NRAS/KRAS (ratio of KD value for NRAS to KD value for KRAS)” value [1] is reported as “A (a compound having 10 or more and less than 20 is denoted as A)”, the Kd ([2]; SPR, Single Cycle Kinetics) is reported as 1.6 nM and the IC50 [3] is reported as 171 nM. For the same compound, the “HRAS/KRAS (ratio of KD value for HRAS to KD value for KRAS)” value [4] was “A (a compound having 10 or more and less than 20 is denoted as A)”.
